Data published in patent US20260374739A1, “SMALL MOLECULAR WEIGHT CHEMICAL COMPOUND TO ANTAGONIZE EPH-EPHRIN TETRAMERIZATION AND INHIBIT BIDIRECTIONAL SIGNALING” (THE BOARD OF REGENTS OF THE UNIVERSITY OF TEXAS SYSTEM, priority 2022, published 2026).
Values joined by “and” are separate entries in the source; they are usually repeats but may differ in a detail not shown here. Identical values can stand only once. “Also recorded” adds a separate entry of the source. Marks after values point to notes of the source that are not given here.

Assays:
EphrinB2-EphB2 [1] = molecular target: T1, EphrinB2-EphB2 (Homo sapiens, UniProt P29323); assay: Octet tetramerization inhibition, immobilized human EphrinB2 binding to 50 nM soluble human EphB2; conditions: for disruption of unsurmountable tetramer: 0.8-3.2 μM
T1 construct: soluble human EphB1-His, EphB2-His, and EphB4-His ectodomains; commercially available human EphrinB1-Fc (EB1), EphrinB2-Fc (EB2), and EphrinB3-Fc (EB3) ectodomain proteins; purchased
T1 sequence (P29323 19-543 limits assumed): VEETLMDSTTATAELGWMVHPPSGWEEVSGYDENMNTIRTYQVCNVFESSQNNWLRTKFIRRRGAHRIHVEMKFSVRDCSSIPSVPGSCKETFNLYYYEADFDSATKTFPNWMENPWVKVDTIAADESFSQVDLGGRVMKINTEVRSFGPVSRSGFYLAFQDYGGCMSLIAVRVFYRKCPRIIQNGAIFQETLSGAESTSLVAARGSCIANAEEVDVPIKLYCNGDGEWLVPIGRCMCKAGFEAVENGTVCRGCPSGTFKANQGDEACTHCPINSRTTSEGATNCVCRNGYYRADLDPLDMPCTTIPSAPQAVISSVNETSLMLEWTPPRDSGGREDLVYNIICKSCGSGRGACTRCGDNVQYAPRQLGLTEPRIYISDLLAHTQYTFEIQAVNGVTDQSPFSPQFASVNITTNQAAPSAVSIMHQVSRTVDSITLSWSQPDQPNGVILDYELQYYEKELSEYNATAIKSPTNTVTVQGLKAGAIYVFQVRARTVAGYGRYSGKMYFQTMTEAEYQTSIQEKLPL

EphrinB2-EphB4 = molecular target: T2, EphrinB2-EphB4 (Homo sapiens, UniProt P54760); assay: Octet 80 sec association/500 sec dissociation, immobilized human EphrinB2-Fc binding to soluble human EphB4-His; conditions: immobilized human EphrinB2, 25 nM soluble human EphB4; for EphB4 Inhibition Percent, Inhibition of Association ONLY: at 3.2 μM and 80 seconds; for EphB4 Inhibition Percent, Inhibition of Association-Dissociation: at 3.2 μM and 580 seconds
T2 construct: soluble human EphB1-His, EphB2-His, and EphB4-His ectodomains; commercially available human EphrinB1-Fc (EB1), EphrinB2-Fc (EB2), and EphrinB3-Fc (EB3) ectodomain proteins; purchased
T2 sequence (P54760 16-539 limits assumed): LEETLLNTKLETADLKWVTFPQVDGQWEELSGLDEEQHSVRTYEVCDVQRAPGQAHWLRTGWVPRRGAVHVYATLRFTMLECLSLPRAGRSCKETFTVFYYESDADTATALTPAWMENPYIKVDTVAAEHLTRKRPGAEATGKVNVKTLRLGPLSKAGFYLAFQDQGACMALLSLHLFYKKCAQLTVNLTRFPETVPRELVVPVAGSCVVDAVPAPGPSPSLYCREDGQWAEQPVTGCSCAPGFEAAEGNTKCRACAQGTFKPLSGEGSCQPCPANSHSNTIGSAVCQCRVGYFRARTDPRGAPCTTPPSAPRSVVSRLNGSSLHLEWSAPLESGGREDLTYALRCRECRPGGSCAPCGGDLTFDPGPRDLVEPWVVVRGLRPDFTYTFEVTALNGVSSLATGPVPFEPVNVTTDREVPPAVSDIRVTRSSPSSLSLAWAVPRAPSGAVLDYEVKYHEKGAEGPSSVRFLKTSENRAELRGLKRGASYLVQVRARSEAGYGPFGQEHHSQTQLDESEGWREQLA
Method in brief: (§1)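 EphrinB2-Fc captured on AHC biosensors, then soluble His-tagged EphB ectodomain (25 nM for % inhibition runs) associated 80 s and dissociated 500 s in PBS, 0.05% Tween-20, 1% DMSO ± compound. Compounds tested at 0.1–3.2 μM with a 10 μM max standard; IC50 from AUC of full traces or at 75 s and 135 s.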

EphrinB2-EphB1 = molecular target: T3, EphrinB2-EphB1 (Homo sapiens, UniProt P54762); assay: Octet 80 sec association/500 sec dissociation, immobilized human EphrinB2-Fc binding to soluble human EphB1-His; conditions: immobilized human EphrinB2, 25 nM soluble human EphB1; for EphB1 Inhibition Percent, Inhibition of Association ONLY: at 3.2 μM and 80 seconds; for EphB1 Inhibition Percent, Inhibition of Association-Dissociation: at 3.2 μM and 580 seconds
T3 construct: soluble human EphB1-His, EphB2-His, and EphB4-His ectodomains; commercially available human EphrinB1-Fc (EB1), EphrinB2-Fc (EB2), and EphrinB3-Fc (EB3) ectodomain proteins; purchased
T3 sequence (P54762 18-540 limits assumed): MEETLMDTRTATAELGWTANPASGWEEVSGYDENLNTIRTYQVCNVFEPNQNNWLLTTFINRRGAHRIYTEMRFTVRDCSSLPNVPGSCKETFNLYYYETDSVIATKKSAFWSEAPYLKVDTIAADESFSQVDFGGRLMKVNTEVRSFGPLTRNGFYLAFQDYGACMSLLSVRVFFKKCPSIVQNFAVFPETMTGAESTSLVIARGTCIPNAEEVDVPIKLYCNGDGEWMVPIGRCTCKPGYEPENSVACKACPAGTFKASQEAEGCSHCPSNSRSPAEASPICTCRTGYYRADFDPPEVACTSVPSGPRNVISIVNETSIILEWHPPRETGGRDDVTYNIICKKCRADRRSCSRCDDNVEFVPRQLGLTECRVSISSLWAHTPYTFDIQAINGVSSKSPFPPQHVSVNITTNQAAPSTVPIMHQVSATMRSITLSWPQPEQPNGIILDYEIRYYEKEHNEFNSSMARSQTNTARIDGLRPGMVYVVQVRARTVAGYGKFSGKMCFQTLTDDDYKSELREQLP
Method in brief: as §1

EphrinB2-EphB2 [2] = molecular target: T1, EphrinB2-EphB2; assay: Octet 80 sec association/500 sec dissociation, immobilized human EphrinB2-Fc binding to soluble human EphB2-His; conditions: immobilized human EphrinB2, 25 nM soluble human EphB2; for EphB2 Inhibition Percent, Inhibition of Association ONLY: at 3.2 μM and 80 seconds; for EphB2 Inhibition Percent, Inhibition of Association-Dissociation: at 3.2 μM and 580 seconds
Method in brief: as §1

[3] = Absolute AUC/IC50, Table A, EphrinB2-EphB2
[4] = Absolute Association IC50 (300 sec), Table A, EphrinB2-EphB2
[5] = Absolute Dissociation IC50 (450 sec), Table A, EphrinB2-EphB2
[6] = Relative Association IC50 (300 sec), Table A, EphrinB2-EphB2
[7] = Relative Dissociation IC50 (450 sec), Table A, EphrinB2-EphB2
[8] = Relative AUC/IC50, Table A, EphrinB2-EphB2, compound 7: association only
[9] = tetramerization inhibitor IC50 (relative), association step, surmountable tetramer

SMILES | IC50 (EphrinB2-EphB2 [1]; [3]) [nM] | IC50 (EphrinB2-EphB2 [1]; [4]) [nM] | IC50 (EphrinB2-EphB2 [1]; [5]) [nM] | IC50 (EphrinB2-EphB2 [1]; [6]) [nM] | IC50 (EphrinB2-EphB2 [1]; [7]) [nM] | EphB4 Inhibition Percent, Inhibition of Association ONLY (EphrinB2-EphB4) | EphB4 Inhibition Percent, Inhibition of Association-Dissociation (EphrinB2-EphB4) | EphB1 Inhibition Percent, Inhibition of Association ONLY (EphrinB2-EphB1) | EphB1 Inhibition Percent, Inhibition of Association-Dissociation (EphrinB2-EphB1) | EphB2 Inhibition Percent, Inhibition of Association ONLY (EphrinB2-EphB2 [2]) | EphB2 Inhibition Percent, Inhibition of Association-Dissociation (EphrinB2-EphB2 [2]) | tetramerization inhibitor activity (EphrinB2-EphB2 [1]) | IC50 (EphrinB2-EphB2 [1]; [8]) [nM] | disruption of unsurmountable tetramer (EphrinB2-EphB2 [1]; listed as A19-L) | IC50 (EphrinB2-EphB2 [1]; [9]) [nM] | disruption of unsurmountable tetramer (EphrinB2-EphB2 [1])
Oc1c(Br)cc(CN2CCN(Cc3ccc(Br)cc3)CC2)c2cccnc12 [Compound 45, 7-bromo-5-((4-(4-bromobenzyl)piperazin-1-ium-1-yl)methyl)-8-hydroxyquinolin-1-ium chloride] | 760 | 790 | 720 | 560 | 590 | 4.9% | 28.3% | 37.3% | 49.9% | 62.1% | 77.1% | – | – | – | – | –
Oc1c(I)cc(CN2CCN(Cc3ccc(Br)cc3)CC2)c2cccnc12 [Compound 46, 5-((4-(4-bromobenzyl)piperazin-1-yl)methyl)-7-iodoquinolin-8-ol] | 630 | 720 | 690 | 480 | 510 | 18.1% | 32.0% | 51.6% | 57.2% | 53.0% | 69.6% | exhibit strong IC50 values | 520 | – | – | –
O=C(c1ccc(O)c2ncccc12)N1CCOCC1 [Compound 53, (8-hydroxyquinolin-5-yl)(morpholino)methanone] | 2820 | 3020 | 2340 | 1950 | 1620 | – | 16.8% and 12.5% | – | 38.7% and 26.3% | – | 65.3% and 40.6% | – | 1860 | slight ability to disrupt the unsurmountable tetramer; also recorded: able to inhibit a small amount of the EphrinB2-EphB2 unsurmountable tetramer | ~1600 | –
Cc1ccc2c(CN3CCOCC3)cc(Br)c(O)c2n1 [Compound 57, 7-bromo-2-methyl-5-(morpholinomethyl)quinolin-8-ol] | > 3200 | > 3200 | > 3200 | > 3200 | > 3200 | 0*% | 8.7% | 0*% | 15.3% | 1.4% | 20.3% | – | 2240 | – | > 3000 | –
Cc1ccc2c(CN3CCN(c4ccc(Br)cc4)CC3)ccc(O)c2n1 [Compound 61, 5-((4-(4-bromophenyl)piperazin-1-ium-1-yl)methyl)-8-hydroxy-2-methylquinolin-1-ium chloride] | > 1600 | > 1600 | > 1600 | > 1600 | > 1600 | 0*% | 0*% | 8.1% | 11.3% | 0*% | 0*% | – | > 1600 | – | – | –
COc1ccc2[nH]cc(C(=O)N3CCN(c4ccc(Br)cc4)CC3)c2c1 [Compound 65, (4-(4-bromophenyl)piperazin-1-yl)(5-methoxy-1H-indol-3-yl)methanone] | > 1600 | > 1600 | > 1600 | > 1600 | > 1600 | 20.2% | 19.0% | 22.2% | 28.6% | 5.6% | 46.4% | – | > 1600 | – | – | –
COc1ccc(N2CCN(Cc3ccc(O)c4ncccc34)CC2)cc1 [Compound 72, 5-((4-(4-methoxyphenyl)piperazin-1-yl)methyl)quinolin-8-ol] | 2290 | 2510 | 1510 | 1200 | 1070 | 19.8% | 33.2% | 30.0% | 44.5% | 39.4% | 60.2% | exhibit strong IC50 values | – | – | – | ability to disrupt some of the unsurmountable tetramer
COc1ccc(N2CCN(Cc3cc(I)c(O)c4ncccc34)CC2)cc1 [Compound 74, 7-iodo-5-((4-(4-methoxyphenyl)piperazin-1-yl)methyl)quinolin-8-ol] | 400 | 560 | 420 | – | – | 21.0% | 43.4% | 47.2% | 58.2% | 50.6% | 70.0% | exhibit strong IC50 values | – | – | – | –
Oc1ccc(CN2CCN(c3ccc(C(F)(F)F)cc3)CC2)c2cccnc12 [Compound 103, 5-((4-(4-(trifluoromethyl)phenyl)piperazin-1-yl)methyl)quinolin-8-ol] | – | – | – | – | – | 0*% | 11.4% | 16.3% | 33.8% | 10.5% | 27.6% | eliminated the activity | – | – | – | –
